Test [1] addresses δ opioid receptors (Rattus norvegicus, UniProt P33533). As to the kind of experiment: Opiate Binding Assay, displacement of 3[H]-DSLET.
Test [2] concerns Charles River albino mice. As to the kind of experiment: Hot Plate Assay (Hind Paw Lick Assay). The test is classed as in vivo, mouse. From the text:
(§1) The "Tail Flick Assay" and the "Hot Plate Assay" (also known as the "Hind Paw Lick Assay") use thermal pain of transient duration, and are tests in which the pain threshold of the mice or rats being analyzed has not been altered. They are useful for evaluating the ability of a compound or drug to increase the animal's pain threshold (i.e. prolong response latencies), rather than to restore normal thresholds.
(§2) The heat-induced response to the Tail Flick Assay is a reflex reaction mediated at the level of the spinal cord. The heat-induced response to the Hot Plate Assay, however, is a more complex behavior requiring integration at higher centers in the brain. […]
(§3) Tail flick response latencies (defined as the time that elapsed between the onset of a high intensity beam of light and the reflex removal of the mouse or rat's tail) and hot plate response latencies (defined as the time that elapsed between the placement of a mouse or rat on a 55 degrees Celsius surface and a lick of the hind paw) were separately, but consecutively, measured before (baseline) and again at fixed intervals after subcutaneous or intracerebroventricular administration of one of the tetrapeptide compounds of the invention, the Methyl Ester Tetrapeptide, the Mosberg Tetrapeptide, or after the administration of saline (controls). […]
(In general: In hot-plate and tail-flick tests a longer latency is read as antinociception.)

Test [3] has as its system Charles River albino mice. As to the kind of experiment: Tail Flick Assay. It counts as in vivo, mouse. The note with it: listed as Test Tetrapeptide No. 1, monohydrochloride.
Source text: as §1, §2, §3

Test [4] relates to CD Charles River mice. As to the kind of experiment: Writhing Assay (PBQ-induced writhing). The test is classed as in vivo, mouse. The note with it: for number of mice out of ten in which peptide was active, Intragastric: 10 mg/kg i.g., PBQ i.p. 15 min after dosing; for ED50 value, subcutaneous: s.c. The text has this:
The "Writhing Assay" is one of the most widely-used experimental procedures for measuring the analgesic activity of different narcotic and nonnarcotic analgesic agents, and involves the continuous, chemically-induced pain of visceral origin to an animal, such as a mouse or rat. [Gyires et al., Arch. int. Pharmacodyn, 267, 131-140 (1984); C. Vander Wende et al., Fed. Proc., 15, 494 (1956); Koster et al., Fed. Proc., 18, 412 (1959); and Witken et al., J. Pharmacol. Exp. Ther., 133, 400-408 (1961). ] Chemicals which may be used to induce this pain include phenylbenzoquinone (PBQ) and acetic acid. As a result of the chemical irritation to the animal, a characteristic stretching and writhing of the animal (dorsiflexion of the animal's back, extension of its hindlimbs an the strong contraction of its abdominal musculature) will generally occur. […] Drugs which reduce the number of writhes of the animal appear to restore the normal nociceptive threshold of the animal.
This assay was conducted generally in the manner described by R. I. Taber, "Predictive Value of Analgesic Assays in Mice and Rats,"Advances in Biochemical Psychopharmacology, 8, 191 (1974). The Methyl Ester Tetrapeptide and Test Tetrapeptides Nos. 1, 3, 4, 5, 6, 7, 8 and 9 were tested in this assay.
Two hundred CD Charles River mice, weighing 20 to 30 grams were used in this assay.
Twenty-five minutes after subcutaneous administration, and fifteen minutes after intragastric administration, to the mice of 10 mg per kilogram of body weight of either a Test Tetrapeptide or the Methyl Ester Tetrapeptide, […] of body weight of a 0.025% w/v solution of PBQ was injected intraperitoneally into each mouse. Some mice were given saline in place of a Test Tetrapeptide or the Methyl Ester Tetrapeptide, and were used as a control group.
Five minutes later, each mouse was individually placed into a glass beaker for observation, and the number of writhes occurring during the following ten-minute period was counted.
A tetrapeptide compound was considered to be "active" (to have produced analgesia in a mouse) if, in accordance with the conditions set forth above, and under the test criteria employed for this assay, after the administration of 10 mg per kilogram of body weight of the tetrapeptide to the mouse, the number of writhes elicited by a mouse injected with PBQ was equal to, or less than, one-half the median number of writhes recorded for the saline-treated control group of mice that day, as described by R. I. Taber, supra.
The standard initial screening dose of a compound employed in this assay was 10 mg per kilogram (mpk) of body weight for both routes of administration. If this initial screening dose of the tetrapeptide produced analgesia in seven of ten mice, then the effect of additional doses of the tetrapeptide on the writhing response was evaluated, and then the ED50 value (that dose of a Test Tetrapeptide or the Methyl Ester Tetrapeptide which produced analgesia in 50% of the mice to which the tetrapeptide was administered) was generally calculated. A maximum likelihood function was used to determine the ED50 value. (The slopes of the dose-response curves for all tetrapeptides analyzed were compared as described by Tallarida and Murray, Manual of Pharmacologic Calculations, Page 11 (Springer Verlag, N.Y., 1981)).

The target of test [5] is μ opioid receptors (Rattus norvegicus, UniProt P33535). As to the kind of experiment: Opiate Binding Assay, displacement of 3[H]-DAMPGO.

pIC50: −log10 of the molar value. Entries after “also recorded” stand apart in the source; their conditions may differ. Where a name gives a salt, the structure may show the parent alone. Positions of bridges follow the written chain, without caps; N, C: chain ends. Non-standard residues stand in square brackets, D forms with d. Residues, ends and D or L forms follow the SMILES beside them. Dmt = Cc1cc(O)cc(C)c1C[C@H](N)C(=O)O; dPen = CC(C)(S)[C@@H](N)C(=O)O

Chain of δ opioid receptors (P33533 whole entry): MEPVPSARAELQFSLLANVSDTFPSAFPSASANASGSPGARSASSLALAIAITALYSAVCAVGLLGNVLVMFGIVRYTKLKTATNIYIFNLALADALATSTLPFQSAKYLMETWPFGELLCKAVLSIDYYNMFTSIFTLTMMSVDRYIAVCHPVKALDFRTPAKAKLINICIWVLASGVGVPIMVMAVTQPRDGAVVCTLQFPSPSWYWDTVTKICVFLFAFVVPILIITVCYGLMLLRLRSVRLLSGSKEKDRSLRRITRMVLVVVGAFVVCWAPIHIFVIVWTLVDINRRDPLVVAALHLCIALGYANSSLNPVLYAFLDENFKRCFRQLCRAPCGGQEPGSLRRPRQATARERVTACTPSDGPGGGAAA
Chain of μ opioid receptors (P33535 whole entry): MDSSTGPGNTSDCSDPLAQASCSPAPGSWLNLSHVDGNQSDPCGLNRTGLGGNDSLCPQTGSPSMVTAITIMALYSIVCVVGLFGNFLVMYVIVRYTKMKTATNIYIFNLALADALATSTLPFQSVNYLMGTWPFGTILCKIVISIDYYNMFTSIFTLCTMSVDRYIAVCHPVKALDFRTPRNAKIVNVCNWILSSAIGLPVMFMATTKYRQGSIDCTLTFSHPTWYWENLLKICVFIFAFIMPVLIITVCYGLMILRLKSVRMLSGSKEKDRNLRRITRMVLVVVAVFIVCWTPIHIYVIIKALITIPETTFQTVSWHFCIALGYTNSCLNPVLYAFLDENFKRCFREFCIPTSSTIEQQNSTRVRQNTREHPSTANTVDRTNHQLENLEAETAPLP

Turning to `COC(=O)[C@@H]1NC(=O)[C@H](Cc2ccccc2)NC(=O)[C@H](NC(=O)[C@@H](N)Cc2c(C)cc(O)cc2C)CSSC1(C)C` [Example 25, 2,6-dimethyl-L-tyrosyl-D-cysteinyl-L-phenylalanyl-3-mercapto-D-valine, cyclic (2→4)-disulfide. methyl ester, monohydrochloride] (H-[Dmt][dC]F[dPen]-OMe; disulfide 2-4), the “Mean IC50 Value μ/δ Ratio” value in test [1] (ratio of mean IC50 μ to δ, above 1.0 = more specific for δ) came to 1.2. In addition, the “activity (increase in hot plate latency), Intracerebroventricular” value in test [2] (i.c.v., at 1.0 μg/kg) is “Active”. Besides, in test [2] (s.c., at 100 mpk, listed as Test Tetrapeptide No. 1, monohydrochloride, 100 mg/kg), the “activity (increase in hot plate latency), Subcutaneous” value is recorded as “Active; also recorded: showed activity”. For the same compound, the “activity (increase in tail flick latency), Intracerebroventricular” value in test [3] (i.c.v., at 1 μg/kg) is reported as “active”. Further, the “activity (increase in tail flick latency), Subcutaneous” value in test [3] (s.c., at 100 mpk, 100 mg/kg) is given as “Active; also recorded: showed activity”. In test [4], the “number of mice out of ten in which peptide was active, Intragastric” value is given as 3/10 and the “ED50 value, subcutaneous” value is reported as 4.1 mg per kg of body weight. Further, the “ED50 value, subcutaneous” value in test [4] (PBQ i.p. 25 min after dosing) worked out at 4.1 mpk.

`Cc1cc(O)cc(C)c1C[C@H](N)C(=O)N[C@@H]1CSSC(C)(C)[C@H](C(=O)O)NC(=O)[C@H](Cc2ccccc2)NC1=O` [Example 4, 2,6-dimethyl-L-tyrosyl-D-cysteinyl-L-phenylalanyl-3-mercapto-D-valine, cyclic (2→4)-disulfide] (H-[Dmt][dC]F[dPen]-OH; disulfide 2-4): the pIC50 is 9.40 in test [1] and 8.27 in test [5].

Consider “2,6-dimethyl-L-tyrosyl-D-cysteinyl-4-chloro-L-phenylalanyl-3-mercapto-D-valine, cyclic (2→4)-disulfide, methyl ester, monohydrochloride [Example 32]”, for which the “Percent Displacement (δ)” value in test [1] (at 100 nM, 3[H]-DSLET) is given as 44%. The “Percent Displacement (μ)” value in test [5] (at 100 nM, 3[H]-DAMPGO) is 18%. Besides, in test [4], the “number of mice out of ten in which peptide was active, Intragastric” value is 4/10. Besides, the “number of mice out of ten in which peptide was active, Subcutaneous” value in test [4] (10 mg/kg s.c., PBQ i.p. 25 min after dosing) is 4/10.

A word on the pIC50: it is −log10 of the IC50, conventionally taken in molar units. Low readings indicate a high IC50, high ones a low IC50.

These data come from US5216124A, “Substituted cyclic tetrapeptides” (G. D. Searle & Co., priority 1991, dated 1993).
